Test results taken from patent US9981940B2, “Aryl sulfide derivatives and aryl sulfoxide derivatives as acaricides and insecticides” (BAYER CROPSCIENCE AKTIENGESELLSCHAFT, priority 2013, dated 2018).

Key:
[1] = test system: Tetranychus urticae; test: Tetranychus urticae spray test, OP-resistant (TETRUR); assay type: in vivo; settings: application rate of 500 g/ha, after 6 days; for pest or weed control at 500 g/ha: Tetranychus urticae, 144 h, read-out: efficacy
Method in brief: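 Mortality as % efficacy (0% = no mites killed) read 6 days after spraying. Formulation: active ingredient in acetone/dimethylformamide plus emulsifier, diluted with emulsifier-containing water, applied to Phaseolus vulgaris leaf discs carrying every life stage of OP-resistant spider mites.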

[2] = log P by HPLC (OECD Guideline 117), method [a] acidic range; assay type: physicochemical; settings: for logP[a]: HPLC, method [a] acidic range; for chromatographic logP: reversed-phase C18 HPLC column, acidic range
Protocol: (§1) The log P values were determined analogously to OECD Guideline 117 (EC Directive 92/69/EEC) by HPLC (high-performance liquid chromatography) using reversed-phase columns (C 18), by the following methods:
[a] The LC-MS determination in the acidic range is effected at pH 2.7 with 0.1% aqueous formic acid and acetonitrile (contains 0.1% formic acid) as eluents; linear gradient from 10% acetonitrile to 95% acetonitrile.

[3] = log P by HPLC (OECD Guideline 117), method [b] neutral range; assay type: physicochemical; settings: HPLC; for logP[b]: method [b] neutral range; for chromatographic logP: reversed-phase C18 HPLC column, neutral range, pH 7.8
Protocol: as §1
[b] The LC-MS determination in the neutral range is effected at pH 7.8 with 0.001 molar aqueous ammonium hydrogencarbonate solution and acetonitrile as eluents; linear gradient from 10% acetonitrile to 95% acetonitrile.

[4] = pH 2.7, HPLC method [a], read-out: logP[a]
[5] = pH 2.7, HPLC, pH 2.7, read-out: log P[a]

logP[a] [2]	logP[b] [3]	chromatographic logP [2, 4]	chromatographic logP [2, 5]	chromatographic logP [3]	Compound	efficacy [1]	pest or weed control at 500 g/ha [1]
4.45	4.37	–	–	–	C=CCn1c(SCCC)nn(-c2cc(SCC(F)(F)F)c(C)cc2F)c1=O [Example 427]	90%	–
4.03	3.96	–	–	–	C=CCn1c(SCC)nn(-c2cc(SCC(F)(F)F)c(C)cc2F)c1=O [Example 428]	100%	–
4.13	4.07	–	–	–	C=CCSc1nn(-c2cc(SCC(F)(F)F)c(C)cc2F)c(=O)n1CC=C [Example 429]	90%	–
3.18	3.33	–	–	–	C=CCn1c(SCCC)nn(-c2cc([S+]([O-])CC(F)(F)F)c(C)cc2F)c1=O (stereo not shown) [Example 430]	90%	–
2.83	2.92	–	–	–	C=CCn1c(SCC)nn(-c2cc([S+]([O-])CC(F)(F)F)c(C)cc2F)c1=O (stereo not shown) [Example 431]	90%	–
2.02	1.99	–	–	–	Cc1cc(F)c(-n2nc(Br)n(C)c2=O)cc1[S+]([O-])CC(F)(F)F (stereo not shown) [Example 433]	100%	–
3.45	3.40	–	–	–	CCn1c(Cl)nn(-c2cc(SCC(F)(F)F)c(C)cc2F)c1=O [Example 434]	100%	–
2.34	2.30	–	–	–	CCn1c(Cl)nn(-c2cc([S+]([O-])CC(F)(F)F)c(C)cc2F)c1=O (stereo not shown) [Example 436]	100%	–
4.24	4.17	–	–	–	Cc1cc(F)c(-n2nc(Br)n(C(C)(C)C)c2=O)cc1SCC(F)(F)F [Example 438]	100%	–
4.18	4.13	–	–	–	Cc1cc(F)c(-n2nc(Br)n(Cc3ccccc3)c2=O)cc1SCC(F)(F)F [Example 440]	100%	–
3.02	2.98	–	–	–	Cc1cc(F)c(-n2nc(Br)n(C(C)(C)C)c2=O)cc1[S+]([O-])CC(F)(F)F (stereo not shown) [Example 441]	100%	–
–	–	3.11	3.11	3.09	Cc1nn(-c2cc(SCC(F)(F)F)c(C)cc2F)c(=O)o1 [Example 448, 3-{2-Fluoro-4-methyl-5-[(2,2,2-trifluoroethyl)sulphanyl]phenyl}-5-methyl-1,3,4-oxadiazol-2(3H)-one]	–	100%
4.30	4.25	–	–	–	Cc1cc(F)c(-n2nc(C(C)(C)C)oc2=O)cc1SCC(F)(F)F [Example 449]	90%	–
3.18	3.15	–	–	–	COCc1nn(-c2cc(SCC(F)(F)F)c(C)cc2F)c(=O)o1 [Example 450]	100%	–
–	–	1.99	1.99	2.02	Cc1nn(-c2cc([S+]([O-])CC(F)(F)F)c(C)cc2F)c(=O)o1 (stereo not shown) [Example 451, 3-{2-Fluoro-4-methyl-5-[(2,2,2-trifluoroethyl)sulphinyl]phenyl}-5-methyl-1,3,4-oxadiazol-2(3H)-one]	–	90%
2.85	2.83	–	–	–	Cc1cc(F)c(-n2ncoc2=O)cc1SCC(F)(F)F [Example 454]	90%	–
3.53	3.46	–	–	–	CCc1nn(-c2cc(SCC(F)(F)F)c(C)cc2F)c(=O)o1 [Example 455]	100%	–
3.62	3.55	–	–	–	Cc1cc(F)c(-n2nc(C3CC3)oc2=O)cc1SCC(F)(F)F [Example 456]	100%	–
4.35	4.29	–	–	–	Cc1cc(F)c(-n2nc(-c3ccccc3)oc2=O)cc1SCC(F)(F)F [Example 457]	90%	–
4.85	4.78	–	–	–	Cc1cc(F)c(-n2nc(-c3ccc(Cl)cc3)oc2=O)cc1SCC(F)(F)F [Example 458]	100%	–
3.20	3.20	–	–	–	Cc1cc(F)c(-n2nc(-c3ccncc3)oc2=O)cc1SCC(F)(F)F [Example 459]	90%	–
3.94	3.92	–	–	–	CCCc1nn(-c2cc(SCC(F)(F)F)c(C)cc2F)c(=O)o1 [Example 460]	100%	–
4.35	4.33	–	–	–	CCCCc1nn(-c2cc(SCC(F)(F)F)c(C)cc2F)c(=O)o1 [Example 461]	90%	–

The next lines start with the molecule.

Compound	logP[a] [2]	logP[b] [3]	chromatographic logP [2, 4]	chromatographic logP [2, 5]	chromatographic logP [3]	efficacy [1]	pest or weed control at 500 g/ha [1]
CCCOc1nn(-c2cc(SCC(F)(F)F)c(C)cc2F)c(=O)n1CC [Example 400]	4.06	3.96	–	–	–	100%	–
CCOc1nn(-c2cc(SCC(F)(F)F)c(C)cc2F)c(=O)n1CC [Example 401]	3.62	3.53	–	–	–	100%	–
CC(C)(C)COc1nn(-c2cc([S+]([O-])CC(F)(F)F)c(Cl)cc2F)c(=O)n1C1CC1 (stereo not shown) [Example 402]	4.13	3.98	–	–	–	90%	–
COc1cc(F)c(-n2nc(OCC(C)(C)C)n(C3CC3)c2=O)cc1[S+]([O-])CC(F)(F)F (stereo not shown) [Example 403]	3.50	3.44	–	–	–	100%	–
Cc1cc(Cl)c(-n2nc(OCC(C)(C)C)n(C3CC3)c2=O)cc1[S+]([O-])CC(F)(F)F (stereo not shown) [Example 404]	3.79	3.71	–	–	–	100%	–
CC(C)(C)COc1nn(-c2cc([S+]([O-])CC(F)(F)F)c(Cl)cc2Cl)c(=O)n1C1CC1 (stereo not shown) [Example 405]	4.36	4.18	–	–	–	90%	–
C=CCn1c(OCC(F)(F)F)nn(-c2cc([S+]([O-])CC(F)(F)F)c(C)cc2F)c1=O (stereo not shown) [Example 407]	2.94	2.90	–	–	–	90%	–
CCCOc1nn(-c2cc([S+]([O-])CC(F)(F)F)c(C)cc2F)c(=O)n1CC (stereo not shown) [Example 408]	2.86	2.81	–	–	–	100%	–
CCOc1nn(-c2cc([S+]([O-])CC(F)(F)F)c(C)cc2F)c(=O)n1CC (stereo not shown) [Example 409]	2.44	2.44	–	–	–	90%	–
Cc1cc(F)c(-n2nc(OCc3ccccc3)n(C3CC3)c2=O)cc1SCC(F)(F)F [Example 410]	4.32	4.25	–	–	–	100%	–
COc1nn(-c2cc([S+]([O-])CC(F)(F)F)c(C)cc2F)c(=O)n1CC1CC1 (stereo not shown) [Example 412]	2.54	2.52	–	–	–	100%	–
COc1nn(-c2cc([S+]([O-])CC(F)(F)F)c(C)cc2F)c(=O)n1C(C)C (stereo not shown) [Example 413]	2.44	2.40	–	–	–	90%	–
Cc1cc(F)c(-n2nc(OCc3ccccc3)n(C3CC3)c2=O)cc1[S+]([O-])CC(F)(F)F (stereo not shown) [Example 414]	3.24	3.19	–	–	–	100%	–
Cc1cc(F)c(-n2nc(N(C)C)n(C3CC3)c2=O)cc1SCC(F)(F)F [Example 416]	3.86	3.80	–	–	–	90%	–
Cc1cc(F)c(-n2nc(C(C)C)n(N)c2=O)cc1S(=O)(=O)CC(F)(F)F [Example 417]	2.25	2.21	–	–	–	100%	–
COn1c(C(C)C)nn(-c2cc(SCC(F)(F)F)c(C)cc2F)c1=O [Example 418]	3.52	3.49	–	–	–	90%	–
COn1c(C(C)C)nn(-c2cc([S+]([O-])CC(F)(F)F)c(C)cc2F)c1=O (stereo not shown) [Example 419]	2.46	2.42	–	–	–	100%	–
Cc1cc(F)c(-n2nc(S(C)(=O)=O)n(C)c2=O)cc1SCC(F)(F)F [Example 420, 2-{2-Fluoro-4-methyl-5-[(2,2,2-trifluoroethyl)sulphanyl]phenyl}-4-methyl-5-(methylsulphonyl)-2,4-dihydro-3H-1,2,4-triazol-3-one]	–	–	2.7	2.7	2.77	–	90%
Cc1cc(F)c(-n2nc(S(C)(=O)=O)n(C)c2=O)cc1[S+]([O-])CC(F)(F)F (stereo not shown) [Example 421, 2-{2-Fluoro-4-methyl-5-[(2,2,2-trifluoroethyl)sulphinyl]phenyl}-4-methyl-5-(methylsulphonyl)-2,4-dihydro-3H-1,2,4-triazol-3-one]	–	–	1.88	1.88	1.84	–	100%
CCn1c(S(C)(=O)=O)nn(-c2cc([S+]([O-])CC(F)(F)F)c(C)cc2F)c1=O (stereo not shown) [Example 422]	2.12	2.11	–	–	–	100%	–
C=CCn1c([S+]([O-])CC)nn(-c2cc([S+]([O-])CC(F)(F)F)c(C)cc2F)c1=O (stereo not shown) [Example 424]	2.05	2.04	–	–	–	90%	–
C=CCSc1nn(-c2cc(SCC(F)(F)F)c(C)cc2F)c(=O)n1C1CC1 [Example 425]	4.10	4.01	–	–	–	100%	–
